Assays:
[1] = Photobleaching under laser irradiation, measured with a fluorescence spectrometer; assay type: physicochemical; settings: total dose 10 J cm^−2, nearly same initial fluorescence intensity
Procedure: Photobleaching characteristics of free Ce6 and nanophotomedicine (NPM-3) having nearly the same initial florescence intensity (that correlate with concentration of the drug) is compared using a fluorescence spectrometer. Laser irradiation of samples of both products was carried out under identical condition of a total dose of 10 J cm^−2. FIG. 4 illustrates the changes in the fluorescence emission characteristics of both the samples. […] In effect, this leads to long term stability of the drug within the construct even after extended duration of therapy.

[2] = system: Leukemia cells K562; assay: Intracellular photobleaching by confocal imaging under 405 nm laser; assay type: cell-based, human; settings: 1 μM sensitizer, 3 hrs incubation, 1-360 seconds
Procedure: Leukemia cells K562 were seeded at 800.000 cells/well in a 12 well tissue culture plate and treated with both free Ce6 (1 μM) and nanophotomedicine (NPM-3) prepared by using the same concentration of the sensitizer. Cells were incubated at 37° C. for 3 hrs before imaging using confocal microscope. Fluorescence imaging was carried out by exciting the sensitizer or nanophotomedicine taken-up by the cells using 405 nm laser. For recording the photobleaching at intracellular regions of the cancer cells, which has significant correlation to therapeutic effects, imaging is carried out after stipulated duration of laser irradiation from 1-360 seconds).

chlorin e6 [free Ce6]
photodose at which the drug is inactivated by photobleaching [1]: 2.5 J cm^−2
duration of laser irradiation until intracellular fluorescence is bleached out [2]: 30 s

Reference: US20220296714A1, “TARGETED NANO-PHOTOMEDICINES FOR PHOTODYNAMIC THERAPY OF CANCER” (ERASMUS UNIVERSITY MEDICAL CENTER ROTTERDAM, priority 2009, published 2022)
